Assays:
[1] = system: PCP-induced social behaviour deficit in female rats; details: background statement; cited from earlier work
[2] = system: sub-chronic PCP-induced deficit in social behaviour in female Lister-Hooded rats; assay: social interaction test in sub-chronic PCP treated rats; type: in vivo, rat
Procedure: The aim of the current study was to investigate the ability of CBD-C4 (3, 10 & 30 mg/kg IP; 60 min pre-treatment (ptt)) in comparison with risperidone (an atypical antipsychotic; 0.1 mg/kg IP; 60 min pre-treatment), to antagonise a sub-chronic PCP (scPCP; 2 mg/kg IP; twice daily for 7-days; 7 day wash out)-induced deficit in social behaviour in female Lister-Hooded rats.
180 female Lister Hooded rats were used for this experiment, of which 90 were used for the drug study and 90 weight-matched untreated conspecifics were used as the companion rat, and their behaviour was not scored.
Rats were housed in groups of 5 under standard laboratory conditions under a 12-hr light: dark cycle, lights on at 0700 hr. Testing was carried out in the light phase. These studies were carried out in accordance with the Animals Scientific Procedures Act (UK, 1986).
CBD-C4 was used at doses of (3, 10, 30 mg/kg, i.p.) and risperidone was used at a dose of 0.1 mg/kg, i.p.
Rats were randomly assigned to two treatment groups and treated with vehicle, n=15 (distilled water, i.p.) or PCP, n=75 (2 mg/kg, i.p. twice daily for 7-days). This was followed by a 7-day wash out period before the rats were tested following acute treatment with CBD-C4, risperidone or vehicle.
Risperidone (0.1 mg/kg) was dissolved in a minimum volume of acetic acid, made up to volume with distilled water and pH adjusted to 6 with 0.1M NaOH and administered via the i.p. route in a volume of 1 ml/kg, 60 min prior to testing.
CBD-C4 (3, 10 & 30 mg/kg) was dissolved in 2:1:17 (Ethanol:Cremophor EL:Saline 0.9%). CBD-C4 was administered via the i.p. route in a volume of 5 ml/kg, 60 min prior to testing.
The social interaction test was performed in an open-field comprising a square box made of Plexiglas (52×52×31 cm) placed 27 cm above the floor on a moveable trolley. The floor of the box was white with black gridlines forming 9 identical squares on it. All other walls were black. A video camera connected to a video recorder and monitor was positioned above the box. The object used for the test consists of a heavy structure made of metal that cannot be displaced by the animals.
After a 7 day drug-free period, the rats were habituated to the test environment and arena prior to the test day. Habituation consisted of placing all rats from one cage together in the empty test arena for one hour for three days including the day before the test day.
Pairs of rats, weight matched (15-20 g) and unfamiliar to each other, receiving either no treatment (n=90 “conspecific” rats) or different treatments (PCP; n=15 “tested” rats, Vehicle; n=15 “tested” rats, or PCP+drug; n=60 “tested” rats) were placed in the test arena together for 10 minutes and behavior assessed as described below.
An inanimate object such as an unopened drink can was also placed in the centre of the arena to measure any differences in interaction of the test animal with an unfamiliar animal as opposed to an unfamiliar object. After each 10-minute trial, the object and arena were cleaned with 10% alcohol in an attempt to remove traces of any olfactory cues. All testing was carried out under standard room illumination levels (70 cd/m^2).
Behaviour in both trials was recorded on video for subsequent blind scoring. A behavioural scoring software program (Hindsight, Scientific programming services) was used to score the following parameters:
Investigative sniffing behaviour: sniffing the conspecific's snout or parts of the body including the anogenital region.
Following: rat moves after the conspecific i.e. a vehicle treated rat of the same species, around the arena.
Avoidances: actively turning away when approached by the conspecific animal.
Investigation of object: exploration of object placed in centre of the arena.
Locomotor activity is recorded by counting the total number of sectors (i.e. lines) crossed by the test rat.
All data were assessed for normality using D'Agostino and Pearson normality test. […]

mouse model of seizure = assay: maximal electroshock (MES) test in the mouse; type: in vivo; details: 2 mg/kg i.p. 30 minutes before MES; p<0.001
Procedure: Mice were administered MES (50 mA, rectangular current: 0.6 ms pulse width, 0.4 s duration, 50 Hz) via corneal electrodes connected to a constant current shock generator (Ugo Basile: type 7801). The number of tonic convulsions was recorded.
Twelve mice were studied per group. The test was performed blind.
The test substance, CBD-C4, was evaluated at 5 doses (3, 10, 30, 100 and 200 mg/kg), administered i.p. 60 minutes before MES, and compared with a vehicle control group (administered under the same experimental conditions).
Diazepam (2 mg/kg i.p.), administered i.p. 30 minutes before MES, was used as a reference substance and was compared with a vehicle group (administered i.p. 60 minutes before MES).
Data was analysed by comparing treated groups with the appropriate vehicle control using Fisher's Exact Probability tests.

[3] = 0.1 mg/kg i.p., 60 min pre-treatment
[4] = CBD-C4 3, 10, 30 mg/kg, risperidone 0.1 mg/kg i.p., data not shown

## O=C(CCCN1CCC(O)(c2ccc(Cl)cc2)CC1)c1ccc(F)cc1 [haloperidol]
[1]
  attenuation of PCP-induced social behaviour deficit: not attenuated

## Cc1nc2n(c(=O)c1CCN1CCC(c3noc4cc(F)ccc34)CC1)CCCC2 [risperidone]
[2]; [3]
  avoidance behaviour compared to the scPCP-treated group: significantly decreased
  following behaviour: no significant effect
  sniffing behaviour: no significant effect
[2]; [4]
  line crossings (locomotor activity): no significant effect
  object exploration: no significant effect

## O=C1CCc2ccc(OCCCCN3CCN(c4cccc(Cl)c4Cl)CC3)cc2N1 [aripiprazole]
[1]
  attenuation of PCP-induced social behaviour deficit: attenuated

## O=C1Cc2cc(CCN3CCN(c4nsc5ccccc45)CC3)c(Cl)cc2N1 [ziprasidone]
[1]
  attenuation of PCP-induced social behaviour deficit: attenuated

## CNCCC(Oc1ccc(C(F)(F)F)cc1)c1ccccc1 (stereo not shown) [fluoxetine]
[1]
  attenuation of PCP-induced social behaviour deficit: not attenuated

## CN1C(=O)CN=C(c2ccccc2)c2cc(Cl)ccc21 [diazepam, Diazepam, reference compound]
Mouse model of seizure
  decrease in the number of tonic convulsions, as compared with vehicle controls: −75%

## c1ccc(C2(N3CCCCC3)CCCCC2)cc1 [PCP, Phencyclidine]
[2]; PCP 2 mg/kg i.p. twice daily 7 days, 7-day wash out, P<0.001
  sniffing behaviour (scPCP vs vehicle): significantly reduced
[2]; PCP 2 mg/kg i.p. twice daily 7 days, 7-day wash out, P<0.01
  following behaviour (scPCP vs vehicle): significantly reduced
[2]; PCP 2 mg/kg i.p. twice daily 7 days, 7-day wash out, P=0.058
  increase in the duration of avoidance activity (scPCP vs vehicle): just failed to reach statistical significance
